Experiments:
Aβ42 [1] = target: T1, Aβ42 (Homo sapiens, UniProt P05067); assay: Membrane filter retardation assay (FRA) of Aβ42 aggregation; assay type: biochemical
T1 construct: the amyloid-β 1-42 (Aβ42) peptide
Procedure: 2.1.1. Protein aggregation. For aggregation reactions, Aβ42 stock solution (1 mM in DMSO) was diluted in phosphate buffer (100 mM sodium phosphate, 10 mM NaCl, pH 7.4) to 15 µM and incubated in 1.5 ml Eppendorf tubes (Eppendorf, Germany) at 37°C. Generation of soluble Aβ42 oligomers was performed as described (Lambert, 1998). Aβ42 DMSO stock solutions were diluted in Ham's F12 medium without phenol red (Biosource) at a final peptide concentration of 100 µM, with or without test compounds. After brief vortexing, samples were incubated at 4-6°C for 24 h. […]
2.1.2. […] Aggregates retained on the filter membrane were detected using the 6E10 antibody (1 : 5.000) (Sigma, Deisenhofen, Germany), and secondary antibodies conjugated to either horseradish peroxidase or alkaline phosphatase (Promega, Germany). […] After 30 min incubation at 37°C with proteinase K, samples were denatured and analyzed by FRA.
2.2.1 Identification of small molecules that stimulate Aβ42 aggregation. In order to find chemical compounds that promote Aβ42 amyloidogenesis, a membrane filter retardation assay (FRA) was established that allows the identification of large, insoluble protein aggregates, while monomers and small, soluble oligomers are not detected (Fig. 1). […]

Aβ42 [2] = target: T1, Aβ42; assay: Transmission electron microscopy (TEM/AFM) of Aβ42 aggregate species; assay type: biochemical
Procedure: 2.1.1. Protein aggregation. For aggregation reactions, Aβ42 stock solution (1 mM in DMSO) was diluted in phosphate buffer (100 mM sodium phosphate, 10 mM NaCl, pH 7.4) to 15 µM and incubated in 1.5 ml Eppendorf tubes (Eppendorf, Germany) at 37°C. Generation of soluble Aβ42 oligomers was performed as described (Lambert, 1998). Aβ42 DMSO stock solutions were diluted in Ham's F12 medium without phenol red (Biosource) at a final peptide concentration of 100 µM, with or without test compounds. After brief vortexing, samples were incubated at 4-6°C for 24 h. Alternatively, Aβ42 oligomers were prepared as described in (Ma, 2006) by diluting DMSO stock solution to a final Aβ42 concentration of 110 µM in 10 mM HEPES buffer pH 7.4. Samples were incubated in a glass vial with a micro stir bar at 37°C for 24 h and subsequently centrifuged (Beckman Coulter Microfuge R, rotor F241.5P) at 13,000 rpm.
2.2.2. 04 promotes the assembly of seeding-competent, β-sheet-rich Aβ42 fibrils. To examine the morphology of 04-generated protein aggregates, time course experiments were carried out and evaluated by transmission electron microscopy (TEM). After an incubation period of 4 d, worm-like Aβ42 protofibrils (Walsh, 1999) with a length of ∼30-150 nm and a diameter of -5 nm were predominantly detected in untreated aggregation reactions (Fig. 2c). […] A similar result was obtained after an incubation period of 7 d (Fig. 2c). […] At the same time, the number of oligomeric structures was reduced in 04-treated aggregation reactions (p < 1*10^-4).
We then investigated whether 04 treatment influences the assembly of small Aβ42 oligomers, which are preferentially formed at low temperature in cell-free assays (Lambert, 1998). Aβ42 monomers were incubated for 24 h at 6-8°C in the presence and absence of 04 and formation of oligomers was analyzed by TEM. In agreement with previously published data soluble fractions of untreated aggregation reactions contained large numbers of predominantly spherical Aβ42 oligomers with a diameter of 5-15 nm (Fig. 3e). […] In the presence of 04 a relatively large number of long amyloid fibrils was detected in insoluble fractions, while such structures were not observed in the absence of the chemical compound. However, in pellet fractions of untreated aggregation reactions smaller protofibrillar aggregate species were detected by TEM (Fig. 3e).
Analysis of amyloid fibrils by TEM and AFM also support the antibody binding results. While untreated Aβ42 aggregates in agreement with previously published studies (Bieschke, 2005) are straight fibrils and show a plain, highly regular surface, such a fibrillar morphology was not detected with 04 treated samples (Fig. 7e and f).

[3] = target: T2, A11-reactive amyloid oligomers (Homo sapiens, UniProt P05067); assay: Dot blot assay with conformation-specific antibody A11; assay type: biochemical; details: Aβ42 15 µM, 48 h at 37°C, 04 at 1:1 or 5:1 molar ratio
T2 construct: the amyloid-β 1-42 (Aβ42) peptide
T2 sequence (P05067 672-713 limits assumed): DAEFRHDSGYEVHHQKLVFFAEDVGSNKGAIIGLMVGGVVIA
Procedure: Finally, we examined the effect of 04 on potentially toxic amyloid oligomers that are recognized by the conformation-specific antibody A11 (Kayed, 2003). Soluble Aβ42 peptides were incubated in the presence and absence of 04 for 48 h at 37°C and the resulting aggregate species were analyzed by dot blot assays.

primary cortical neurons = assay: Aβ42 toxicity in primary cortical neurons; assay type: cell-based; details: after addition of 04 to neuronal cultures
[4] = test system: hippocampal rat brain slices; assay: Hippocampal long-term potentiation (LTP) in brain slices, CA1 area; details: Aβ42 monomers and small oligomers added to slices, with 04; LTP evoked by high-frequency stimulation
Procedure: Finally, we investigated whether 04 treatment influences Aβ42-mediated impairment of hippocampal long-term potentiation (LTP) in rat brain slices (Wang, 2004; Walsh, 2002). A preparation of Aβ42 peptides containing monomers and small oligomers was added to hippocampal brain slices and LTP was measured in the CA1 area.

T1 sequence (P05067 672-713 limits assumed): as above

Compound: O=c1cc2oc3cc(O)c(-c4ccc(O)cc4O)cc3nc-2cc1-c1ccc(O)cc1O [Compound 04, 2,8-bis-(2,4-dihydroxyphenyl)-7-hydroxy-phenoxazin-3-one]
- formation of SDS-stable insoluble Aβ42 aggregates (Aβ42 [1]; Aβ42 15 µM, equimolar or 5-fold molar excess of compound, detection with 6E10 antibody): promotes spontaneous assembly of Aβ42 insoluble aggregates in a concentration-dependent manner
- proteinase K resistance of Aβ42 aggregates (Aβ42 [1]; aggregates generated 4 and 7 d at 37°C with or without 04 (15 µM), proteinase K 10-200 µg/ml, 30 min at 37°C): more proteinase K resistant than untreated aggregates
- morphology of amyloid fibrils (TEM and AFM) (Aβ42 [2]; Aβ42 15 µM, 04 75 µM, 4 d non-agitated, 37°C): mostly bent amyloid fibrils with a rough, irregular surface
- number of oligomeric structures (Aβ42 [2]; Aβ42 15 µM, 04 150 µM, after 48 h, p < 1*10^-4): reduced
- number of long amyloid fibrils (Aβ42 [2]; Aβ42 15 µM, 04 150 µM, after 48 h, untreated control 1.3%, p < 1*10^-5): 27%
- length of amyloid fibrils (Aβ42 [2]; Aβ42 15 µM, 04 150 µM, incubation 4 d, untreated: protofibrils ∼30-150 nm): > 500 nm
- spherical Aβ42 oligomers in soluble fractions (TEM) (Aβ42 [2]; Aβ42 100 µM, 04 10-fold molar excess, 24 h at 6-8°C in F12 medium): only very rarely detected
- A11-reactive oligomers [3]: detected in the absence but not in the presence of the chemical compound
- Aβ42-mediated cellular toxicity (primary cortical neurons): significantly reduced
- Aβ42 oligomer block of LTP [4]: suppressed

From patent publication EP2508186A1, “Phenoxazinones or phenothiazones as inhibitors of amyloid formation” (Max-Delbrück-Centrum für Molekulare Medizin, priority 2011, dated 2012)
